Measured values from patent publication US4129643A, “Method for rapid screening of teratogenic agents” (priority 1976, dated 1978).

Key:
Format in all cases: cell-based
test cells = assay: screening test for teratogenic activity with cells cultured in amniotic fluid; details: tests on two teratogens in the mouse
From the text: According to my invention I provide a process for screening a compound for teratogenic activity comprising administering the compound being screened to a test animal, removing amniotic fluid from the test animal, using the amniotic fluid removed as part or all of a cell culture medium, and measuring the effect on cell properties of cells grown in the culture medium containing the amniotic fluid from the test animal as compared with the use of amniotic fluid from an otherwise identical control animal that has not had the compound being screened administered to it.
(1) Amniotic fluid is used as cell culture medium or as an additive to a standardised cell culture medium in order to test the substance as processed by the maternal organism. Amniotic fluids either from animals of diverse genotype or of selected genotypes, as required, are pooled. […]
(2) A standardised cell suspension is innoculated into cultures and grown during log phase in the medium containing amniotic fluid from a control or test series as described above. […] Lens epithelium has been used since I have published evidence that quantitative regulation of specific syntheses is of especial importance in this orgen and the assay system described in (3) below detects changes in mitotic rate, cell mass, and growth conditions, cell surface modification and genetically determined pathology. […]

lens epithelial cells [1] = assay: protein profile (accumulated protein, stained isoelectric focussing gels) of lens epithelial cells grown in amniotic fluid from injected mice; details: diluted to 50% with culture medium; for changes in the protein profile (bands of stained gels): Coomassie Blue stained gels, densitometry
Protocol: Similar densitometry is made of the autoradiograph of the gels. Each analysis can be done on a culture grown from a cell suspension of as little as 1-4.5 × 10^5 cells, but can be scaled up or down as required.
(§1) Mice of numerous genotypes were taken from amongst all the more prolific strains available from the Institute of Animal Genetics Mouse House (Mouse News Letter, 1974). They were mated and the pregnancies dated by vaginal plug. They were injected once, subcutaneously, with a teratogen, between 12-15 days of gestation in order to obtain a large volume of clear amniotic fluid. 1-2 hours after the injection the mice were killed by cervical dislocation, the uteri removed and the amniotic fluid harvested under sterile conditions, passed through a Millex filter and stored at -20°C. Control amniotic fluids were obtained from uninjected mice of a similar range of genotypes and stages of gestation. Mice were injected with double the teratogenic doses used for 6-aminonicotinamide by Pinsky and Fraser (Biol. Neonat., 1,106-112 (1959)) and for sodium acetyl salicylate by Larsson and Erickson (Acta. Paed. Scand., 55, 569-576, )1976)), but the amniotic fluids were diluted to 50% with culture medium for use, thus giving a final concentration similar to that used by these authors. Five batches of pooled amniotic fluid of each kind were prepared in this way and tested in separate culture experiments.
Cultures of dissociated lens epithelial cells were prepared according to Okada, Eguchi and Takeichi (Dev. Growth Diffn., 13,323-326 (197l)), and plated at 4.5 × 10^5 cells per dish in 3.5 ml Earles MEM (Biocult) containing 6% foetal calf serum (Gibco). The medium was changed at 2 days, and after 4 days, when these cells were in log phase, the medium was replaced by 1 ml of medium and 1 ml of amniotic fluid. After two further days the cells were labelled for 4 to 5 hours with ^14 C mixed amino acids (Amersham) at 20 μCi/ml. The cultures were washed several times in Hanks solution, harvested with a miniature plastic scraper and taken up into a drop of 8M urea containing 10 mM β-mercaptoethanol. The drop was frozen and thawed three times to liberate the cell contents. When required, the living cells were examined with a Gilbert and Siebert inverted phase microscope.
Polyacrylamide gels containing ampholines according to Wrigley (Science Tools, 15, 17-23, (1968)) were modified to contain 6M urea, 10mM β-mercaptoethanol, and an ampholine mixture giving a gradient from pH 3 to 10, flattened in the region of 4.5 to 7.0. Such gels give especially high resolution for crystallins and are now routinely used in my laboratory. 20 μl of cell preparation was added to each gel which was electrofocussed overnight according to Wrigley (loc. cit.). […]

lens epithelial cells [2] = assay: morphology of lens epithelial cells grown in amniotic fluid from injected mice; details: amniotic fluid from mice injected once s.c. at 12-15 days gestation, harvested 1-2 h after; diluted to 50% with culture medium; two days' culture
Protocol: as §1, with “experiments. […]” for “experiments.”

NC(=O)c1ccc(N)nc1 [6-aminonicotinamide]
discrimination of treated cells from control cells (test cells): distinguish reliably and specifically between the cells treated by each of these teratogens, and control cells | other quantitative changes in the protein profile (lens epithelial cells [1]): some other, less striking quantitative changes were also recorded | changes in the protein profile (bands of stained gels) (lens epithelial cells [1]): one band being missing and one exaggerated | cell outline / morphology (lens epithelial cells [2]): modified cell outline

CC(=O)Oc1ccccc1C(=O)O [sodium acetyl salicylate]
discrimination of treated cells from control cells (test cells): distinguish reliably and specifically between the cells treated by each of these teratogens, and control cells | other quantitative changes in the protein profile (lens epithelial cells [1]): Other quantitative changes were also observed | changes in the protein profile (bands of stained gels) (lens epithelial cells [1]): lacking in the band which was enhanced by 6-aminonicotinamide treatment | cell outline / morphology (lens epithelial cells [2]): normal in morphology
